Test results published in patent publication US6924288B2, “Enantiomerically pure opioid diarylmethylpiperzine and methods of using same” (priority 2001, dated 2005).

Experiments:
μ opioid receptor = target: T1, μ opioid receptor (Rattus norvegicus, UniProt P33535); assay: Radioligand binding, [3H]DAMGO competition, rat brain membranes; conditions: rat brain membranes, [3H]DAMGO; read-out: Rat Brain Membrane K1 (nM) μ
T1 construct: tissue Pel-Freeze Biological Inc. (Rogers, Ark.); host or cells: rat whole brain membranes
Description: (§1) Two stereoisomerically related racemic mixtures and inclusive enantiomers were evaluated for in vitro opioid receptor affinity in rat brain membranes (μ and δ opioid) and guinea pig cerebellum (κ opioid receptor). Membranes for radioligand binding were prepared from either rat whole brain or guinea pig cerebellum, supplied by Pel-Freeze Biological Inc. (Rogers, Ark.). Tissues were homogenized in 50 mM TRIS (Tris[hydrooxymethyl]aminomethane) buffer (pH 7.4) containing 50 ug/ml soybean trypsin inhibitor, 1 mM EDTA (Ethylenediaminetetraacetic acid), and 100 μM PMSF (Phenylmethylsulfonyl fluoride). The homogenized brain tissues were centrifuged at 500×g for 30 minutes (4° C.) to remove large debris. The supernatant was polytronically sonicated for 10 seconds (P.E. setting of 2, 4° C.). Sucrose solution was then added to a final concentration of 0.35 M using a 10 mM TRIS-Sucrose buffer (pH 7.4) and the brain membranes were then centrifuged at 40,000×g for 30 minutes (4° C.). The membrane pellets were then washed twice in 10 mM TRIS buffer (pH 7.4) containing 50 μg/ml soybean trypsin inhibitor, 1 mM EDTA, and 100 μM PMSF.
(§2) Radioligand binding assays were performed in 10 mM TRIS buffer (pH 7.4) containing 50 μg/ml soybean trypsin inhibitor, 1 mM EDTA, 5 mM MgCl2, and 100 μM PMSF. Tritium-labeled DAMGO (μ), Deltorphin II (δ), or U69593 (κ) purchased from New England Nuclear were used as ligands in competitive experiments (2-3×10^−10 M final concentrations) with non-specific binding defined by 0.5×10^−6 M Naloxone (purchased from SIGMA Chemical Co.). All binding assays were run at room temperature for 90 minutes and then terminated by rapid filtration on GF/C glass fiber filters (Whatman, Hillsboro, Oreg.) with 50 mM TRIS buffer (4° C., pH 7.4) employing a Brandel Semi-automatic Cell Harvester (Model M48, Brandel, Gaithersburg, Md.). The filters were washed twice with 50 mM TRIS buffer (4° C., pH 7.4) and the filters were placed in liquid scintillation cocktail and the bound radioactivity counted on a Beckman LS 6500 scintillation counter. The potency of the compounds in inhibiting the binding of radiolabelled DAMGO (μ), Deltorphin II (δ), or U69593 (κ) was determined from full concentration-effect curves. With the computer program Prism (GraphPad Software Inc., San Diego, Calif.) the IC50 values were determined using a one-site nonlinear regression analysis of the radioligand binding data. The IC50 values were then converted to Ki values using the Cheng-Prusoff equation. (Cheng Y and Prusoff W H (1973) Relationship between the inhibition constant (K1) and the concentration of inhibitor which causes 50 percent inhibition (I50) of a enzymatic reaction. Biochem Pharm 22:3099-3108.)

δ opioid receptor = target: T2, δ opioid receptor (Rattus norvegicus, UniProt P33533); assay: Radioligand binding, [3H]Deltorphin II competition, rat brain membranes; conditions: read-out: Rat Brain Membrane K1 (nM) δ
T2 construct: tissue Pel-Freeze Biological Inc. (Rogers, Ark.); host or cells: rat whole brain membranes
Description: as §1, §2

κ opioid receptor = target: T3, κ opioid receptor (Cavia porcellus, UniProt P41144); assay: Radioligand binding, [3H]U69593 competition, guinea pig cerebellum membranes; conditions: read-out: Guinea Pig Brain Membrane K1 (nM) κ
T3 construct: tissue Pel-Freeze Biological Inc. (Rogers, Ark.); host or cells: guinea pig cerebellum membranes
Description: as §1, §2

[1] = target: T4, Mu receptor, mouse vas deferens (Mus musculus, UniProt P42866); assay: Mouse vas deferens, inhibition of electrically induced contractions, mu (with TIPP and nor-BNI); type: cell-based; conditions: in presence of 3 μM TIPP and 15 nM nor-BNI; read-out: Mouse Vas Deferens ED50 (nM) μ
T4 construct: Mouse vasa deferentia (MVD), CD-1 strain, Harlan, Raleigh, N.C.) were removed from mice; tissue Harlan, Raleigh, N.C; (animals); host or cells: mouse vas deferens, CD-1 strain

[2] = target: T5, Delta receptor, mouse vas deferens (Mus musculus, UniProt P32300); assay: Mouse vas deferens, inhibition of electrically induced contractions, delta; type: cell-based; conditions: read-out: Mouse Vas Deferens ED50 (nM) δ
T5 construct: Mouse vasa deferentia (MVD), CD-1 strain, Harlan, Raleigh, N.C.) were removed from mice; tissue Harlan, Raleigh, N.C; (animals); host or cells: mouse vas deferens, CD-1 strain
Description: The compound of formula (I) and compounds 1, 3, 4, 5 and 6 as identified above, were evaluated for in vitro opioid receptor activity in various receptor systems, including mouse vas deferens (Mouse Vas Deferens ED50), and guinea pig ileum (Guinea Pig Ileum ED50). The assay procedures used for such determinations of receptor activity are set out below.
In vitro bioassays: Mouse vasa deferentia (MVD), CD-1 strain, Harlan, Raleigh, N.C.) were removed from mice and suspended between platinum electrodes with 0.5 g of tension in organ bath chambers containing a modified Mg^++ free Krebs buffer of the following composition (millimolar): NaCl, 117.5; KCl, 4.75; CaCl2, 2.6; KH2PO4, 1.20; NaHCO3, 24.5; and glucose, 11. The buffer was saturated with 95% O2/5% CO2 and kept at 37° C. Tissues were stimulated at supramaximal voltage with 10-Hz pulse trains for 400-msec.; train interval 10 seconds; and 1.0 msec pulse duration at maximal voltage. Delta receptor activity was determined by adding appropriate concentrations of test compound to organ baths and allowing a maximal response before addition of the next higher concentration.
The ED50 values were extrapolated from curves showing the dose concentration plotted against the response (J. A. H. Lord, A. A. Waterfield, J. Hughes, H. W. Kosterlitz, Nature 267, 495, (1977)).

rats [3] = assay: Tail pinch test for analgesia in rats; type: in vivo; conditions: rat; for Analgesia (delay of response to tail pinch): 0.30 mg/kg i.v., cutoff 20 sec; for ED50: intravenous, 20 sec cutoff; for ED50 / Analgesic effect in words: tail pinch; for Analgesic effect in words: i.v., FIGS. 1-6
Description: (§3) Analgesia was assayed in rats using the tail pinch test with simultaneous monitoring of capillary blood gases (pCO2). During this testing period respiratory depression values were also obtained. Male rats (Wistar Hannover 200-300 g) were anesthetized with 2% isoflurane (J. A. Webster, Inc., Sterling, Mass. The femoral artery was cannulated with PE50 tubing for blood sampling. The external jugular vein was also cannulated with Silastic tubing for drug injection. After surgery, anesthetic gases were removed and the rat was allowed to rest in a plastic restrainer for 60 minutes to establish baseline values of blood gases.
(§4) The compounds 1-6 were administered intravenous. Nociceptive response and respiratory values were obtained for a 1-2 hour period. The femoral artery cannulation was used to draw arterial blood into a syringe pre-wetted with heparin. Samples were then analyzed with a blood gas analyzer (Ph/Gas Analyzer Synthesis 25 Model, Instrumentation Laboratory) to assess respiratory depression effects. The volume of blood taken each time was 0.15 cc. The syringes were capped immediately and the blood gases analyzed within 5 minutes. The blood exposed to air at the tip of the syringe was expelled. The blood was mixed by gentle inversion and an aliquots of 0.10 cc was injected into the blood gas analyzer.
An artery clamp was placed on the tail (one inch from the tip of the tail) for a short duration until an escape response occurred (i.e. tail-flick or vocalization). The escape response latency was recorded by means of a stopwatch. A cutoff time of 20 sec. was used to prevent unnecessary tissue damage. […] The elapsed time to elicit a pain response was recorded as the tail pinch latency in seconds. Blood gases were monitored at approximately the same time points as the tail pinch test.
(§5) The ED50 values for analgesia potency and respiratory depression were determined to calculate the safety or therapeutic ratio, which is defined as the respiratory depression ED50 divided by analgesia ED50.

[4] = Respiratory depression by blood gas (pCO2) monitoring in rats; type: in vivo; conditions: male, Wistar Hannover, in vivo; rat, intravenous
Description: as §3, §4
(§6) The gas analyzer was well maintained and operated. Calibrations (low, normal and high) were done at the beginning of every day of testing. The sample lines, co-oximeter and the blood gas electrode were cleaned regularly at the end of every day of testing. Hematocrit calibration (high and low) was scheduled on a weekly basis and tubing, sample and pinch valve were replaced on a monthly basis.
as §5

rats [5] = assay: as above; type: in vivo; conditions: rat; for Respiratory Depression % Units Baseline pCO2: 0.30 mg/kg i.v.; for Safety Ratio (respiratory depression ED50 divided by analgesia ED50): intravenous; for Mortality due to respiratory depression / Effect on blood pCO2 levels in words: i.v.
Description: as §3, §4, §6, §5

SMILES	Ki (μ opioid receptor)	Ki (δ opioid receptor)	Ki (κ opioid receptor)	EC50 [1]	EC50 [2]	Analgesia (delay of response to tail pinch) (rats [3]; 4 min.)	Analgesia (delay of response to tail pinch) (rats [3]; 8 min.)	Analgesia (delay of response to tail pinch) (rats [3]; 32 min.)	ED50 (rats [3])	ED50 [4]	Respiratory Depression % Units Baseline pCO2 (rats [5]; 4 min.)	Respiratory Depression % Units Baseline pCO2 (rats [5]; 8 min.)	Respiratory Depression % Units Baseline pCO2 (rats [5]; 32 min.)	Safety Ratio (respiratory depression ED50 divided by analgesia ED50) (rats [5])	Mortality due to respiratory depression (rats [5])	Analgesic effect in words (rats [3])	Effect on blood pCO2 levels in words (rats [5])
C=CCN1C[C@@H](C)N([C@@H](c2ccsc2)c2cccc(O)c2)C[C@@H]1C (racemic) [Compound 1, (±)3-((R*)-((2R*,5S*)-4-allyl-2,5-dimethyl-1-piperazinyl)(3-thienyl)methyl)phenol]	0.36 nM	1.29 nM	1.67 nM	881 nM	30 nM	19.5 s	10.5 s	1 s	0.21 mg/kg	0.98 mg/kg	21%	25%	7%	4.7			
C=CCN1C[C@H](C)N([C@@H](c2ccsc2)c2cccc(O)c2)C[C@H]1C (racemic) [Compound 4, (±)3-((R*)-((2S*,5R*)-4-allyl-2,5-dimethyl-1-piperazinyl)(3-thienyl)methyl)phenol]	0.18 nM	14.9 nM	2.34 nM	170 nM	58 nM	20 s	20 s	10 s	0.05 mg/kg	0.12 mg/kg	117%	91%	43%	2.4	several of the test subjects died		
C=CCN1C[C@@H](C)N([C@@H](c2ccsc2)c2cccc(O)c2)C[C@@H]1C [Compound 3, (+)3-((R)-((2R,5S)-4-allyl-2,5-dimethyl-1-piperazinyl)(3-thienyl)methyl)phenol]	658 nM	744 nM	100 nM	> 1000 nM	> 1000 nM	0 s	0 s	0 s	> 6 mg/kg	> 6 mg/kg	0%	0%	0%			no measurable analgesic effect	no effect on blood pCO2 levels
C=CCN1C[C@H](C)N([C@@H](c2ccsc2)c2cccc(O)c2)C[C@H]1C [Compound 5, (+)-3-((R)-((2S,5R)-4-allyl-2,5-dimethyl-1-piperazinyl)(3-thienyl)methyl)phenol]	0.75 nM	113 nM	1.73 nM	79.3 nM	1.3 nM	20 s	20 s	20 s	0.03 mg/kg	0.067 mg/kg	120%	78%	45%	2.2	several of the test subjects died		
C=CCN1C[C@@H](C)N([C@H](c2ccsc2)c2cccc(O)c2)C[C@@H]1C [Compound 6, (−)3-((S)-((2R,5S)-4-allyl-2,5-dimethyl-1-piperazinyl)(3-thienyl)methyl)phenol]	60 nM	13 nM	16 nM	> 1000 nM	282 nM	0 s	0 s	0 s	> 6 mg/kg	> 6 mg/kg	0%	0%	0%			no measurable analgesic effect	no effect on blood pCO2 levels
